Reference: PubChem BioAssay (NCI)
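In this assay, cells in 96-well plates receive the compound at five concentrations for 48 hours. Endpoints are linearly interpolated between the surrounding concentrations. GI50 is the concentration that inhibits growth by half. At the TGI there is no net growth.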

Experiments:
Experiment in all cases: NCI anticancer screen, dose series, 48 h
SR leukemia = test system: SR leukemia
UACC-62 melanoma = test system: UACC-62 melanoma
KM12 colon = test system: KM12 colon
UACC-257 melanoma = test system: UACC-257 melanoma
SNB-75 CNS = test system: SNB-75 CNS
NCI-H226 lung = test system: NCI-H226 lung
MDA-MB-231 breast = test system: MDA-MB-231 breast
786-0 renal = test system: 786-0 renal
HCT-15 colon = test system: HCT-15 colon
SF-268 CNS = test system: SF-268 CNS
UO-31 renal = test system: UO-31 renal
CAKI-1 renal = test system: CAKI-1 renal
T-47D breast = test system: T-47D breast
HOP-62 NSCLC = test system: HOP-62 NSCLC
HS 578T breast = test system: HS 578T breast
RXF 393 renal = test system: RXF 393 renal
HT29 colon = test system: HT29 colon
HCC-2998 colon = test system: HCC-2998 colon
PC-3 prostate = test system: PC-3 prostate
CCRF-CEM leukemia = test system: CCRF-CEM leukemia
SK-OV-3 ovarian = test system: SK-OV-3 ovarian
SF-539 CNS = test system: SF-539 CNS
IGROV1 ovarian = test system: IGROV1 ovarian
MOLT-4 leukemia = test system: MOLT-4 leukemia
A498 renal = test system: A498 renal
OVCAR-5 ovarian = test system: OVCAR-5 ovarian
LOX IMVI melanoma = test system: LOX IMVI melanoma
NCI/ADR-RES ovarian = test system: NCI/ADR-RES ovarian
NCI-H460 lung = test system: NCI-H460 lung

In the case of `Cn1cc(C2=C(c3cn(CCSC(=N)N)c4ccccc34)C(=O)NC2=O)c2ccccc21`, the TGI (SR leukemia) is reported as 6.87 µM, the GI50 (UACC-62 melanoma) is reported as 3.94 µM and the TGI (UACC-62 melanoma) is reported as 7.43 µM. It also gave a GI50 (KM12 colon) of 3.13 µM, a TGI (KM12 colon) of 6.57 µM and a GI50 (UACC-257 melanoma) of 3.85 µM. It also gave a TGI (UACC-257 melanoma) of 7.79 µM, a GI50 (SNB-75 CNS) of 1.49 µM and a TGI (SNB-75 CNS) of 5.84 µM. For the same molecule, the GI50 (NCI-H226 lung) was 4.49 µM, the TGI (NCI-H226 lung) was 12.2 µM and the GI50 (MDA-MB-231 breast) was 4.12 µM. The TGI (MDA-MB-231 breast) was 8.29 µM, the GI50 (786-0 renal) was 4.29 µM and the TGI (786-0 renal) was 10.7 µM. The GI50 (HCT-15 colon) was 5.21 µM, the TGI (HCT-15 colon) was 11.9 µM and the GI50 (SF-268 CNS) was 3.91 µM. It also gave a TGI (SF-268 CNS) of 8.18 µM, a GI50 (UO-31 renal) of 3.63 µM and a TGI (UO-31 renal) of 7.71 µM. It also gave a GI50 (CAKI-1 renal) of 4.47 µM, a TGI (CAKI-1 renal) of 9.25 µM and a GI50 (T-47D breast) of 3.24 µM. For the same molecule, the TGI (T-47D breast) was 8.25 µM, the GI50 (HOP-62 NSCLC) was 3.81 µM and the TGI (HOP-62 NSCLC) was 7.98 µM. It also gave a GI50 (HS 578T breast) of 3.24 µM, a TGI (HS 578T breast) of 10.4 µM and a GI50 (RXF 393 renal) of 3.56 µM. It also gave a TGI (RXF 393 renal) of 8.23 µM, a GI50 (HT29 colon) of 1.31 µM and a TGI (HT29 colon) of 5.28 µM. For the same molecule, the GI50 (HCC-2998 colon) was 4.13 µM, the TGI (HCC-2998 colon) was 8.07 µM and the GI50 (PC-3 prostate) was 3.51 µM. It also gave a TGI (PC-3 prostate) of 8.4 µM, a GI50 (CCRF-CEM leukemia) of 1.38 µM and a TGI (CCRF-CEM leukemia) of 12.7 µM. It also gave a GI50 (SK-OV-3 ovarian) of 2.79 µM, a TGI (SK-OV-3 ovarian) of 6.56 µM and a GI50 (SF-539 CNS) of 3.63 µM. It also gave a TGI (SF-539 CNS) of 7.62 µM, a GI50 (IGROV1 ovarian) of 4.92 µM and a TGI (IGROV1 ovarian) of 9.46 µM. It also gave a GI50 (MOLT-4 leukemia) of 1.98 µM, a TGI (MOLT-4 leukemia) of 7.95 µM and a GI50 (A498 renal) of 4.22 µM. For the same molecule, the TGI (A498 renal) was 8.95 µM, the GI50 (OVCAR-5 ovarian) was 6.25 µM and the TGI (OVCAR-5 ovarian) was 14.1 µM. The GI50 (LOX IMVI melanoma) was 3.02 µM, the TGI (LOX IMVI melanoma) was 6.52 µM and the GI50 (NCI/ADR-RES ovarian) was 13.2 µM. The TGI (NCI/ADR-RES ovarian) was 25 µM, the GI50 (NCI-H460 lung) was 3.84 µM and the TGI (NCI-H460 lung) was 7.69 µM.
